Data reported in patent US7291641B2, “Derivatives of heterocycles with 5 members, their preparation and their use as medicaments” (Societe de Conseils de Recherches et d'Applications …, priority 1999, dated 2007).

Row | melting point [°C] | SMILES
1 | 72 to 74 | CC(C)(C)OC(=O)N[C@H](CCc1ccccc1)c1nc(-c2ccccc2)c[nH]1 [Example 129, tert-butyl (1R)-3-phenyl-1-(4-phenyl-1H-imidazol-2-yl)propylcarbamate]
2 | 184 to 185 | CC(C)(C)OC(=O)N[C@H](CC1CCCCC1)c1nc(-c2ccccc2)c[nH]1 [Example 130, tert-butyl (1R)-2-cyclohexyl-1-(4-phenyl-1H-imidazol-2-yl)ethylcarbamate]
3 | 152 to 154 | CS(=O)(=O)c1ccc(-c2c[nH]c([C@@H](NC3CCCCC3)C3CCCCC3)n2)cc1 [Example 138, N-{(S)-cyclohexyl[4-(4-methylsulphonylphenyl)-1H-imidazol-2-yl]methyl}cyclohexanamine]
4 | 136 to 138 | CC(C)(NCc1ccccc1)c1nc(-c2ccccc2)c[nH]1 [Example 139, N-benzyl-2-(4-phenyl-1H-imidazol-2-yl)-2-propanamine]
5 | 70 to 74 | c1ccc(CN(Cc2ccccc2)Cc2nc(-c3ccc(-c4ccccc4)cc3)c[nH]2)cc1 [Example 144, N,N-dibenzyl(4-[1,1′-biphenyl]4-yl-1H-imidazol-2-yl)methanamine]
6 | 142 to 143 | CC(C)(C)OC(=O)N[C@@H](Cc1c[nH]c2ccccc12)c1nc(-c2ccccc2)c(-c2ccccc2)[nH]1 [Example 147, tert-butyl (1S)-1-(4,5-diphenyl-1H-imidazol-2-yl)-2-(1H-indol-3-yl)ethylcarbamate]
7 | 70 to 72 | Cc1[nH]c(CN(C)C(=O)OC(C)(C)C)nc1-c1ccccc1 [Example 153, tert-butyl methyl[(5-methyl-4-phenyl-1H-imidazol-2-yl)methyl]carbamate]
8 | 174 to 176 | c1ccc(CNCCc2nc(-c3ccc(-c4ccccc4)cc3)c[nH]2)cc1 [Example 164, N-benzyl-2-(4-[1,1′-biphenyl]-4-yl-1H-imidazol-2-yl)ethanamine]
9 | 233 to 238 | c1ccc(CN[C@H](CC2CCCCC2)c2nc(-c3ccc(-c4ccccc4)cc3)c[nH]2)cc1 [Example 169, (1R)-N-benzyl-1-(4-[1,1′-biphenyl]-4-yl-1H-imidazol-2-yl)-2-cyclohexylethanamine]
10 | 98 to 99 | CC(C)(C)NC(=S)NCCc1nc(-c2ccc(-c3ccccc3)cc2)c[nH]1 [Example 172, 4-[2-(2-{[(tert-butylamino)carbothioyl]amino}ethyl)-1H-imidazol-4-yl]-1,1′-biphenyl]
11 | 152 to 154 | CCCCCCNCCc1nc(-c2ccc(-c3ccccc3)cc2)c[nH]1 [Example 176, N-[2-(4-[1,1′-biphenyl]-4-yl-1H-imidazol-2-yl)ethyl]-1-hexanamine]
12 | 254 to 256 | c1ccc(CNCCCc2nc(-c3ccc(-c4ccccc4)cc3)c[nH]2)cc1 [Example 178, N-benzyl-3-(4-[1,1′-biphenyl]-4-yl-1H-imidazol-2-yl)-1-propanamine]

Further lines, the compound ahead of its results:

Row | SMILES | melting point [°C]
13 | c1ccc(CN[C@H](CC2CCCCC2)c2nc(-c3ccccc3)c[nH]2)cc1 [Example 134, (1R)-N-benzyl-2-cyclohexyl-1-(4-phenyl-1H-imidazol-2-yl)ethanamine] | 52 to 54
14 | c1ccc(CC[C@@H](NCc2ccccc2)c2nc(-c3ccccc3)c[nH]2)cc1 [Example 135, (1R)-N-benzyl-3-phenyl-1-(4-phenyl-1H-imidazol-2-yl)-1-propanamine] | 142 to 144
15 | CC(C)(C)OC(=O)NCc1nc(-c2ccc(-c3ccccc3)cc2)c[nH]1 [Example 137, 4-(2-{[(tert-butoxycarbonyl)amino]methyl}-1H-imidazol-4-yl)-1,1′-biphenyl] | 100 to 102
16 | CC(C)(C)OC(=O)NCc1nc(-c2ccc(-c3ccccc3)cc2)cn1Cc1ccccc1 [Example 140, 4-(1-benzyl-2-{[(tert-butoxycarbonyl)amino]methyl}-1H-imidazol-4-yl)-1,1′-biphenyl] | 167 to 169
17 | Cn1cc(-c2ccc(-c3ccccc3)cc2)nc1CNC(=O)OC(C)(C)C [Example 146, 4-(2-{[(tert-butoxycarbonyl)amino]methyl}-1-methyl-1H-imidazol-4-yl)-1,1′-biphenyl] | 208 to 210
18 | Cn1cc(-c2ccccc2)nc1[C@@H](Cc1c[nH]c2ccccc12)NC(=O)OC(C)(C)C [Example 148, tert-butyl (1R)-2-(1H-indol-3-yl)-1-(1-methyl-4-phenyl-1H-imidazol-2-yl)ethylcarbamate] | 96 to 100
19 | CN(Cc1nc(-c2ccc(-c3ccccc3)cc2)c[nH]1)C(=O)OC(C)(C)C [Example 149, 4-(2-{[(tert-butoxycarbonyl)(methyl)amino]methyl}-1H-imidazol-4-yl)-1,1′-biphenyl] | 72 to 74
20 | CC(C)(C)OC(=O)N[C@H](CC1CCCCC1)c1nc(-c2ccc(-c3ccccc3)cc2)c[nH]1 [Example 150, 4-(2-{(1R)-1-[(tert-butoxycarbonyl)amino]-2-cyclohexylethyl}-1H-imidazol-4-yl)-1,1′-biphenyl] | 112 to 114
21 | CC(C)(C)OC(=O)NCCc1nc(-c2ccc(-c3ccccc3)cc2)c[nH]1 [Example 152, 4-(2-{2-[(tert-butoxycarbonyl)amino]ethyl}-1H-imidazol-4-yl)-1,1′-biphenyl] | 140 to 142
22 | CN(Cc1nc(-c2ccccc2)c(-c2ccccc2)[nH]1)C(=O)OC(C)(C)C [Example 156, tert-butyl (4,5-diphenyl-1H-imidazol-2-yl)methyl(methyl)carbamate] | 170 to 172
23 | CC(C)(C)OC(=O)NCc1nc(-c2ccccc2)c(-c2ccccc2)[nH]1 [Example 157, tert-butyl (4,5-diphenyl-1H-imidazol-2-yl)methylcarbamate] | 144 to 146
24 | c1ccc(CNCc2nc(-c3ccccc3)c(-c3ccccc3)[nH]2)cc1 [Example 163, N-benzyl(4,5-diphenyl-1H-imidazol-2-yl)methanamine] | 160 to 162
25 | CC(C)(C)OC(=O)N(Cc1ccccc1)Cc1nc(-c2ccc(-c3ccccc3)cc2)c[nH]1 [Example 165, 4-(2-{[benzyl(tert-butoxycarbonyl)amino]methyl}-1H-imidazol-4-yl)-1,1′-biphenyl] | 130 to 132
26 | CC(C)(C)OC(=O)N[C@H](CCc1ccccc1)c1nc(-c2ccc(-c3ccccc3)cc2)c[nH]1 [Example 167, 4-(2-{(1R)-1-[(tert-butoxycarbonyl)amino]-3-phenylpropyl}-1H-imidazol-4-yl)-1,1′-biphenyl] | 154 to 156
27 | c1ccc(CC[C@@H](NCc2ccccc2)c2nc(-c3ccc(-c4ccccc4)cc3)c[nH]2)cc1 [Example 170, (1R)-N-benzyl-1-(4-[1,1′-biphenyl]-4-yl-1H-imidazol-2-yl)-3-phenyl-1-propanamine] | 210 to 213
28 | CC(C)(C)OC(=O)NCCCc1nc(-c2ccc(-c3ccccc3)cc2)c[nH]1 [Example 171, 4-(2-{3-[(tert-butoxycarbonyl)amino]propyl}-1H-imidazol-4-yl)-1,1′-biphenyl] | 145 to 146
29 | CC(C)(C)NC(=O)NCCc1nc(-c2ccc(-c3ccccc3)cc2)c[nH]1 [Example 177, 4-[2-(2-{[(tert-butylamino)carbonyl]amino}ethyl)-1H-imidazol-4-yl]-1,1′-biphenyl] | 195 to 196
